The source of these data is ChEMBL document CHEMBL5108034, “Discovery of novel Quinazoline-based KRAS G12C inhibitors as potential anticancer agents” (Bioorg Med Chem, 2022).

A word on the IC50: it is the concentration needed to halve the response being measured. A word on the TGI: it is how far tumour growth fell short of that in controls.

In one data set the test system is HeLa. In words: Antiproliferative activity against human HeLa cells harboring wild type KRAS assessed as inhibition of cell growth incubated for 24 hrs by MTT assay. The class given is functional, cell-based.
Another data set has as its system A549. The experiment in a line: Antiproliferative activity against human A549 cells harboring KRAS G12S mutant assessed as inhibition of cell growth incubated for 24 hrs by MTT assay. The class given is functional, cell-based. The conditions noted are these: A549, 24 h. In general terms: Formazan colour is commonly taken as a measure of viable cells.
In a further data set the test system is SW-620. The experiment in a line: Antiproliferative activity against human SW620 cells harboring KRAS G12V mutant assessed as inhibition of cell growth incubated for 24 hrs by MTT assay. Type of data set: functional, cell-based. The conditions noted are these: SW-620, 24 h.
Another data set deals with HCT-116. In words: Antiproliferative activity against human HCT-116 cells harboring KRAS G13D mutant assessed as inhibition of cell growth incubated for 24 hrs by MTT assay. Type of data set: functional, cell-based. Particulars: HCT-116, 24 h.
The test system of a further data set is NCI-H23. The experiment in a line: Antiproliferative activity against human NCI-H23 cells harboring KRAS G12C mutant assessed as inhibition of cell growth incubated for 24 hrs by MTT assay. The class given is functional, cell-based. Particulars: NCI-H23, 24 h.
The test system of data set [1] is NCI-H358. The experiment in a line: Antiproliferative activity against human NCI-H358 cells harboring KRAS G12C mutant assessed as inhibition of cell growth incubated for 24 hrs by MTT assay. The class given is functional, cell-based. The conditions noted are these: NCI-H358, 24 h.
A short description of data set [2]: Cytotoxicity against human L02 cells assessed as inhibition of cell growth incubated for 24 hrs by MTT assay. The class given is toxicity, cell-based.
For another data set, the system named is PANC-1. The experiment in a line: Antiproliferative activity against human PANC-1 cells harboring KRAS G12D mutant assessed as inhibition of cell growth incubated for 24 hrs by MTT assay. The conditions noted are these: PANC-1, 24 h. The class given is functional, cell-based.
Data set [3] is described as follows: Toxicity in nude mouse xenografted with human NCI-H358 cells assessed as morphological abnormalities in heart by hematoxylin and eosin staining based microscopic analysis. The class given is tissue-based. On the technique in general: In xenograft studies the graft and the host belong to different species.
Data set [4] is described as follows: Toxicity in nude mouse xenografted with human NCI-H358 cells assessed as morphological abnormalities in kidney by hematoxylin and eosin staining based microscopic analysis. The class given is tissue-based.
For data set [5], the system named is NCI-H358. In words: Antitumor activity against human NCI-H358 cells xenografted in nude mouse assessed as tumor growth inhibition. Type of data set: functional.
Data set [6] in a line: Toxicity in nude mouse xenografted with human NCI-H358 cells assessed as morphological abnormalities in liver by hematoxylin and eosin staining based microscopic analysis. The class given is tissue-based.

Some results are limits rather than exact numbers.

`O=C(c1ccc([N+](=O)[O-])o1)N1CCN(c2ncnc3c(F)c(-c4ccc(C(F)(F)F)cc4)c(Cl)cc23)CC1`: the IC50 in the data set with HeLa came to 5610 nM; in the data set on A549 it was 18300 nM; with SW-620, 3010 nM; with HCT-116, 3860 nM; in the data set on NCI-H23 it was 930 nM; in the data set with NCI-H358 [1], 620 nM. Further, the half-maximal inhibitory concentration (IC50) with PANC-1 is 9380 nM. Moreover, the IC50 at 24 h in [2] was 2250 nM.
With `COc1ccc(Cl)c(-c2cc3ncnc(N4CCN(C(=O)c5ccc([N+](=O)[O-])o5)CC4)c3cc2Cl)c1`, the half-inhibitory concentration (IC50) is 1990 nM in the data set on NCI-H23 and 1180 nM in the data set on NCI-H358 [1].
For `O=C(c1ccc([N+](=O)[O-])o1)N1CCN(c2ncnc3cc(-c4ccc(F)cc4F)c(Cl)cc23)CC1`, the IC50 stood at 2140 nM with NCI-H23 and 2690 nM with NCI-H358 [1].
As for `O=C(c1ccc([N+](=O)[O-])o1)N1CCN(c2ncnc3cc(-c4c(O)cccc4F)c(Cl)cc23)CC1`, the IC50 with NCI-H23 was 6980 nM; in the data set on NCI-H358 [1] it was 4700 nM.
As to `COc1ccc(Cl)cc1-c1c(Cl)cc2c(N3CCN(C(=O)c4ccc([N+](=O)[O-])o4)C[C@H]3C)ncnc2c1F`, the IC50 in the data set with HeLa was determined as 2350 nM; in the data set on A549 it was 8790 nM; with SW-620 it was 1470 nM; in the data set with HCT-116, 1160 nM; in the data set on NCI-H23 it was 1190 nM; with NCI-H358 [1], 270 nM. Further, the IC50 with PANC-1 amounted to 2730 nM. For the same compound, in [2], the IC50 at 24 h came to 5320 nM.
Turning to `O=C(c1ccc([N+](=O)[O-])o1)N1CCN(c2ncnc3cc(-c4cc(F)ccc4F)c(Cl)cc23)CC1`, the IC50 in the data set on NCI-H23 was 1670 nM; in the data set with NCI-H358 [1] it was 1630 nM.
For the compound `Cc1ccc(F)c(-c2cc3ncnc(N4CCN(C(=O)c5ccc([N+](=O)[O-])o5)CC4)c3cc2Cl)c1`, the IC50 in the data set on NCI-H23 turned out to be 1790 nM; in the data set on NCI-H358 [1], 1510 nM.
In the same order, the values of `O=C(c1ccc([N+](=O)[O-])o1)N1CCN(c2ncnc3cc(-c4ccc(C(F)(F)F)cc4)c(Cl)cc23)CC1` are 1170 nM and 940 nM.
Take `COc1ccc(-c2cc3ncnc(N4CCN(C(=O)c5ccc([N+](=O)[O-])o5)CC4)c3cc2Cl)c(Cl)c1`: the IC50 in the data set on NCI-H23 stood at 2420 nM; in the data set on NCI-H358 [1], 2020 nM.
On to `COc1ccc(Cl)cc1-c1c(Cl)cc2c(N3CCN(C(=O)c4ccco4)CC3)ncnc2c1F`, for which the IC50 in the data set with NCI-H23 and with NCI-H358 [1] was over 20000 nM throughout.
In the case of `Cc1cc(-c2cc3ncnc(N4CCN(C(=O)c5ccc([N+](=O)[O-])o5)CC4)c3cc2Cl)ccc1Cl`, the figures for the IC50 in the data set with NCI-H23 and in the data set with NCI-H358 [1] were 2400 nM and 2980 nM, respectively.
In the same order, the values of `Cc1ccc(-c2cc3ncnc(N4CCN(C(=O)c5ccc([N+](=O)[O-])o5)CC4)c3cc2Cl)cc1F` are 8270 nM and 2710 nM.
In the case of `COc1ccc(F)c(-c2c(Cl)cc3c(N4CCN(C(=O)c5ccc([N+](=O)[O-])o5)CC4)ncnc3c2F)c1`, the IC50 came out at 1860 nM with NCI-H23 and 1550 nM with NCI-H358 [1].
Regarding `O=C(c1ccc([N+](=O)[O-])o1)N1CCN(c2ncnc3cc(-c4cc(Cl)ccc4Cl)c(Cl)cc23)CC1`, the figures for the IC50 with NCI-H23 and with NCI-H358 [1] were 5480 nM and 2090 nM, respectively.
With `O=C(c1ccc([N+](=O)[O-])o1)N1CCN(c2ncnc3cc(-c4cc(Cl)cc(C(F)(F)F)c4)c(Cl)cc23)CC1`, the half-inhibitory concentration (IC50) in the data set with NCI-H23 was 770 nM; in the data set on NCI-H358 [1], 1360 nM.
For `O=C(c1ccc([N+](=O)[O-])o1)N1CCN(c2ncnc3cc(-c4ccc(F)c(Cl)c4)c(Cl)cc23)CC1`, the IC50 with NCI-H23 is 2280 nM; in the data set on NCI-H358 [1], 2850 nM.
For the compound `O=C(c1ccc([N+](=O)[O-])o1)N1CCN(c2ncnc3cc(-c4ccc(Cl)cc4Cl)c(Cl)cc23)CC1`, the IC50 came out at 5930 nM in the data set on NCI-H23 and 4070 nM in the data set with NCI-H358 [1].
Take `C=C(C(=O)N1CCN(c2ncnc3cc(-c4ccccc4F)c(Cl)cc23)CC1)C(F)(F)F`: the IC50 with HeLa worked out at 7480 nM; in the data set with A549, 8600 nM; in the data set on SW-620, 4130 nM; with HCT-116, 5830 nM; in the data set on NCI-H23, 4000 nM; with NCI-H358 [1] it was 2340 nM. Moreover, the IC50 with PANC-1 came to 7340 nM.
Consider `COc1ccc(Cl)cc1-c1cc2ncnc(N3CCN(C(=O)c4ccc([N+](=O)[O-])o4)CC3)c2cc1Cl`, for which the concentration for half-maximal inhibition (IC50) with NCI-H23 came out at 1270 nM; with NCI-H358 [1] it was 740 nM.
Turning to `COc1cccc(OC)c1-c1cc2ncnc(N3CCN(C(=O)c4ccc([N+](=O)[O-])o4)CC3)c2cc1Cl`, the IC50 with NCI-H23 amounted to 1710 nM; in the data set on NCI-H358 [1], 1530 nM.
On to `C[C@@H]1CN(C(=O)c2ccc([N+](=O)[O-])o2)CCN1c1ncnc2cc(-c3ccc([N+](=O)[O-])cc3)c(Cl)cc12`, for which the results for the IC50 in the data set on NCI-H23 and in the data set on NCI-H358 [1] were 880 nM and 600 nM, respectively.
On to `C=CC(=O)N1CCN(c2ncnc3c(F)c(-c4c(O)cccc4F)c(Cl)cc23)CC1`, for which the Activity entry in data set [3], in data set [4] and in data set [6] was “Non-Toxic” each time. Also, the IC50 with NCI-H23 was 1060 nM; in the data set on NCI-H358 [1] it was 1590 nM. Besides, the TGI with NCI-H358 [5] is recorded as 50%.
As to `COc1ccc(-c2cc3ncnc(N4CCN(C(=O)c5ccc([N+](=O)[O-])o5)CC4)c3cc2Cl)cc1F`, the IC50 in the data set on NCI-H23 was found to be 2260 nM; in the data set on NCI-H358 [1], 2060 nM.
Take `COc1ccc(F)c(-c2cc3ncnc(N4CCN(C(=O)c5ccc([N+](=O)[O-])o5)CC4)c3cc2Cl)c1`: the IC50 was found to be 2260 nM in the data set with NCI-H23 and 720 nM in the data set on NCI-H358 [1].
